The text below walks through data of patent US6344203B1, “Mimicking peptides in cancer therapy” (The Austin Research Institute, priority 1995, dated 2002).

No end group written: not given here.

The target in data set [1] is T1, IB4 lectin (Griffonia simplicifolia, UniProt Q8W1R6).
T1 sequence (Q8W1R6 1-247): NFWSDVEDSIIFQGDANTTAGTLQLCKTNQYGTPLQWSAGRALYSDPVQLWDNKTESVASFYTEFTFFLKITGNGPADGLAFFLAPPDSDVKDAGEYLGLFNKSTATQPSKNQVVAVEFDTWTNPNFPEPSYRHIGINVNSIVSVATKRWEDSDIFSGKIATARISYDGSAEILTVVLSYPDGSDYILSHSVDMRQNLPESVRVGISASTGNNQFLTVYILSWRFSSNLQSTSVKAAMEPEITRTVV
In words: Elisa: inhibition of IB4 lectin binding to Galα(1,3)Gal-BSA. The method, then:
50 μl of either purified anti-Galα(1,3)Ga IgG or biotinylated IB4 lectin was added to the wells, incubated for 45 minutes at 22° C., washed with PBS-0.05% Tween 20, and 50 μl of the relevant IIRP conjugate added and incubated for a further 45 minutes before washing and the addition of 50 μl of substrate (2,2′ Azino-di-B-ethylbenzthiozoline (Zymed, San Francisco, Calif.)) and reading the OD405.
An Elisa was established to calculate the relative “affinity” of the Gal pep 1 (SEQ ID No. 1) for the IB4 lectin and for human anti-Galα(1,3)Gal antibodies, and to compare these with the affinities for α-galactosyl sugars.
Peptides or carbohydrates were examined cytofluorographically for their ability to inhibit antibody/lectin binding to the cell surface using a FACSCAN flow cytometer (Becton Dickinson, USA)[20]: 25 μl of inhibitor was mixed with 25 μl of antibody of lectin and incubated at 22° C. for 3 hours (peptides) or at 4° C. for 16 hours (carbohydrates)[14], prior to addition of appropriate targets. An Elisa assay was used to calculate the relative affinities of the sugars or the peptides for both IB4 lectin and antibodies, and were defined as the molar concentration of inhibitor giving 50% inhibition of the maximal binding of lectin or antibody.

The next data set relates to PIEC cells. In words: Inhibition of cytotoxicity of NHS and complement on PIEC. The format is cell-based, pig. The following applies: peptide 10 mM to 2.5 mM, NHS 1/25. From the text:
FIG. 4. Inhibition of cytotoxicity due to natural antibody and complement by Gal pep 1 (SEQ ID No. 1). Varying concentrations of Gal pep 1 (∘) or CD48 pep 1 (♦) (shown in mM on horizontal axis) were examined in a cytotoxicity assay using NHS (final dilution of 1/25) and PEEC cells as targets.
The binding of lectin or antibody to the surface of pig cells was detected by hemagglutination, cytotoxicity or flow cytometry using the FACSCAN flow cytometer (Becton Dickinson, Mountain View, Calif.).
Human cytotoxic antibodies directly damage pig endothelial cells in a pig-to-human xenograft, therefore the ability of Gal pep 1 (SEQ ID No. 1) to inhibit the cytotoxicity of human antibodies on PIEC in vitro was tested; Gal pep 1 inhibited the cytotoxicity of NHS (10 mM to 2.5 mM), whereas CD48 pep 1 (SEQ ID No. 11) had no effect (FIG. 4).

The target of data set [2] is T1, IB4 lectin. In words: biochemical.
The test system of data set [3] is MCF-7 (MUC1^+HLA-A*0201^+) cells. In words: CTL assay, HLA-A*0201/K^b spleen CTLs on human breast cancer cells. In kind it is ex vivo, mouse. The following applies: HLA-A2 mice. The method, then: FIG. 14(A) Direct CTL assay using p815 MUC1+ (Tm2) or P815 targets. DBA/2 mice were immunised with MFP, or Gal-KLH. FIG. 14(B) CTL assay using HLA-A*0201/K^b spleen CTLs from mice immunised with either mimic or mutated mimic peptides on ^51Cr MCF-7 (MUC1^+HLA-A*0201^+) cells. ^51CrBT20 (MUC1^+HLA-A*0201^−) or MF272 (MUC1^−IILA-A*0201^+) cells were also used as targets and as well as ^51CrMCF-7 cells incubated with cold K562 cells at a 30:1 hot:cold ratio (K562, a myelogenous leukemia cell line). Vertical axis=% lysis; horizontal axis=E:T ratio.
It was next investigated whether the […] peptide (SEQ ID No. 1) be presented by HLA-A2 could immunise for HLA-H2 presented MUC1 peptides. […] Thus the […] peptide (SEQ ID No. 1) gives highly specific immune responses which appear to be directed to the human MUC1 peptide presented by MUC class I molecules.

In general, IC50 refers to the concentration that inhibits the measured activity by half. Low readings indicate higher potency, high ones lower potency. Turning to DAHWESWL [Gal pep 1], the IC50 on IB4 lectin [1] was 300 µM; against IB4 lectin [2], 5000 µM. Further, the “Inhibition of cytotoxicity of NHS on PIEC” value with PIEC cells is reported as “inhibited”.
Regarding DLHWASWV, in data set [3], the “CTL lysis of human breast cancer cell lines” value is on record as “specifically lyse human breast cancer cell lines”.
